ChEMBL document CHEMBL4402557, “Nidufexor (LMB763), a Novel FXR Modulator for the Treatment of Nonalcoholic Steatohepatitis” (J Med Chem, 2020)

Columns and labels:
Estrogen receptor = biological target: T1, Estrogen receptor (Homo sapiens, UniProt P03372); assay: Agonist activity at ERalpha (unknown origin) incubated for 2 hrs by TR-FRET assay
T1 sequence (P03372 whole entry): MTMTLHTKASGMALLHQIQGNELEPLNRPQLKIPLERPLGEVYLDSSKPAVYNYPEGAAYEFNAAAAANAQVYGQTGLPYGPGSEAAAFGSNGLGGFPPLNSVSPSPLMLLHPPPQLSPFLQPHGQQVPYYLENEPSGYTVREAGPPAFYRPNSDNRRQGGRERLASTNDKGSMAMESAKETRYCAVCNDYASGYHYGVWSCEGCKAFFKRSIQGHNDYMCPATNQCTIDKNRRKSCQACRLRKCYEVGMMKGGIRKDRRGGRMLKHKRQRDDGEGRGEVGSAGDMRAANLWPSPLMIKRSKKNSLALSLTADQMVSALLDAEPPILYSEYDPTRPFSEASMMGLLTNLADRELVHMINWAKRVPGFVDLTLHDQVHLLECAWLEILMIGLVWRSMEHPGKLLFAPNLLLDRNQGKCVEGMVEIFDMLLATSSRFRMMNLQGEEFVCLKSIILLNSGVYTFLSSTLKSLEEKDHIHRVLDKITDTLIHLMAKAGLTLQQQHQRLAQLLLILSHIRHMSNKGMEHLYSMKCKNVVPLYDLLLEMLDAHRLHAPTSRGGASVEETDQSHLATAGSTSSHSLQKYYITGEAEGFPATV

[1] = Oral bioavailability in Wistar rat at 10 mg/kg in presence of TRIS salt; format: ADME, organism-based; conditions: in vivo
[2] = Oral bioavailability in Wistar rat at 10 mg/kg; format: ADME, organism-based; conditions: in vivo
[3] = biological target: T2, Bile acid receptor (Rattus norvegicus) (UniProt Q62735); assay: Agonist activity at FXR in rat primary hepatocytes assessed as increase in BSEP mRNA level incubated for 24 hrs by qRT-PCR analysis relative to DMSO; format: cell-based
T2 sequence (whole entry): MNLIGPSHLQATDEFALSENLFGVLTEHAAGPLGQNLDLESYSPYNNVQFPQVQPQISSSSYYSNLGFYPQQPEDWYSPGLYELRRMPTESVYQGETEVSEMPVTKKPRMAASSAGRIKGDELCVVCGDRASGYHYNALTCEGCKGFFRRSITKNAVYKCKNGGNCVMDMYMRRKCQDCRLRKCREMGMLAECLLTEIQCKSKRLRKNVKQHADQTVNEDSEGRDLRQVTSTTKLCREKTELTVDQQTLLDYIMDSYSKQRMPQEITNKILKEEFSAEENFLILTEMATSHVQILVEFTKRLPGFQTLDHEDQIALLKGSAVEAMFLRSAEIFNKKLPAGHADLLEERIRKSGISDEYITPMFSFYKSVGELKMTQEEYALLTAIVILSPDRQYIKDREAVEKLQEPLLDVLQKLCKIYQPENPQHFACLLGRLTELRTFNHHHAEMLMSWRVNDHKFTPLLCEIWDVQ

Glucocorticoid receptor = biological target: T3, Glucocorticoid receptor (Homo sapiens, UniProt P04150); assay: Agonist activity at Glucocorticoid receptor (unknown origin) incubated for 2 hrs by TR-FRET assay
T3 sequence (P04150 whole entry): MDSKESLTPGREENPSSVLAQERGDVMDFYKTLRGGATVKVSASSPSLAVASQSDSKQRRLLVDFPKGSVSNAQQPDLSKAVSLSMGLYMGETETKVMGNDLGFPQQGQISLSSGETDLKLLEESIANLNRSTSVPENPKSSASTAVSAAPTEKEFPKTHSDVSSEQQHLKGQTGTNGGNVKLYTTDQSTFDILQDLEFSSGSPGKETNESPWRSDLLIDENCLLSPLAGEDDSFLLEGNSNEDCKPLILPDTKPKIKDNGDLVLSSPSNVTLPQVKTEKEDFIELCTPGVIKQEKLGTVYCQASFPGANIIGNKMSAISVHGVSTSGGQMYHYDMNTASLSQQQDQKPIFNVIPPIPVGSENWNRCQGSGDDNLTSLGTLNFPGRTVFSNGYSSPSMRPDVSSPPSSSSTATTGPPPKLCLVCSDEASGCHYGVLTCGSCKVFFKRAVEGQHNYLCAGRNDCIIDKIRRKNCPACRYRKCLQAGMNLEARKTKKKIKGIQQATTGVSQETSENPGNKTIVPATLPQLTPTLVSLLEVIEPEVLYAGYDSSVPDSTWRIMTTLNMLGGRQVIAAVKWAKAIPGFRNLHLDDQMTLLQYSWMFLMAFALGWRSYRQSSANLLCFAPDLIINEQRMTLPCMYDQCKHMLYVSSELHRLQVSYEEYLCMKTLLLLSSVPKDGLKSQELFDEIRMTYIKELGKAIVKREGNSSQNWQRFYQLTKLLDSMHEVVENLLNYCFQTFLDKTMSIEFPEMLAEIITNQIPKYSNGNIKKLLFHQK

[4] = biological target: T4, Peroxisome proliferator-activated receptor gamma (Homo sapiens, UniProt P37231); assay: Agonist activity at GAL4-fused PPARgamma (unknown origin) expressed in HEK293T cells incubated for 24 by BrightGlo reagent based assay; format: cell-based
T4 sequence (P37231 whole entry): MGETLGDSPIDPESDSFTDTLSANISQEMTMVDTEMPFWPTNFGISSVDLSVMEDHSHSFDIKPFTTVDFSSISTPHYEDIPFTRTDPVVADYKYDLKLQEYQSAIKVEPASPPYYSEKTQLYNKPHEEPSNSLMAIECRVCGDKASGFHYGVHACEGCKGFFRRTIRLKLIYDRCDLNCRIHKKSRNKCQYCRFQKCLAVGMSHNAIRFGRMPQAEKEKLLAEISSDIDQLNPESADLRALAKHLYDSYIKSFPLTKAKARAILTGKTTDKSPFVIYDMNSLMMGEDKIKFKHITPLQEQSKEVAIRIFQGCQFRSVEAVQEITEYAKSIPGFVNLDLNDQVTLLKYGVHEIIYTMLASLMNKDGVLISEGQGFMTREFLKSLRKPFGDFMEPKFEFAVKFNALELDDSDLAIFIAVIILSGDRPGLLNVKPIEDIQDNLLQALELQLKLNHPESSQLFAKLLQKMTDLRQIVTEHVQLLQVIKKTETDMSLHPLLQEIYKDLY

Mus musculus = assay: Anti Steato-hepatitic activity in STZ/HFD induced oral dosed C57BL/6J mouse STAM model assessed as reduction in inflammatory cell infiltration administered via oral gavage once daily for 3 weeks and measured on 9 week by H and E staining based assay; format: functional, organism-based
[5] = Clearance in mouse at 3 mg/kg, iv; format: ADME, organism-based; conditions: in vivo
[6] = Volume of distribution at steady state in rabbit at 5 mg/kg, iv; format: ADME, organism-based, Oryctolagus cuniculus; conditions: in vivo, read-out: Vdss

## Cn1nc(C(=O)N(Cc2ccccc2)Cc2ccc(C(=O)O)cc2)c2c1-c1cc(Cl)ccc1OC2 [NIDUFEXOR]
Estrogen receptor
  EC50: > 30 µM
[1]
  bioavailability: 52%
[2]
  bioavailability: 52%
[3]
  fold change (FC): 24
Glucocorticoid receptor
  EC50: > 30 µM
[4]
  EC50: > 10 µM
Mus musculus
  Activity: Dose-dependent effect
[5]
  clearance: 9.8 mL/min/kg
[6]
  Vd: 0.6 L/kg
